Measurements reported in ChEMBL document CHEMBL5344422, “Syrosingopine Enhances 20S Proteasome Activity and Degradation of α-Synuclein” (J Nat Prod, 2024).
Active and inactive are the calls of the source. The rule behind the calls is not given here. Peptide text beside a SMILES is read from it. * marks the point of attachment. Cbz = O=C(OCc1ccccc1)*

molecular target: T1, 20S proteasome (Homo sapiens) (UniProt P49721+P20618+P28074+P28062+P28065+P28072+P25786+P25787+P25788+P25789+P28066+P60900+O14818+Q8TAA3+P40306+A5LHX3+P49720+P28070+Q99436); assay: Activation of human 20S proteasome mediated chymotrypsin-like proteolytic activity assessed as maximal fold increase in protein activity using SucLLVY-MCA as a fluorogenic substrate incubated for 1 hr by fluorescence based assay; format: protein-complex assay; conditions: filed as activator

Compound	fold change (FC)
CCOC(=O)Oc1c(OC)cc(C(=O)O[C@@H]2C[C@@H]3CN4CCc5c([nH]c6cc(OC)ccc56)[C@H]4C[C@@H]3[C@H](C(=O)OC)[C@H]2OC)cc1OC	9.8
COC(=O)[C@H]1[C@H]2C[C@@H]3c4[nH]c5cc(OC)ccc5c4CCN3C[C@H]2C[C@@H](OC(=O)c2cc(OC)c(OC)c(OC)c2)[C@@H]1OC	4.8

molecular target: T1, 20S proteasome (Homo sapiens); assay: Activation of 20S proteasome in human HeLa cells assessed as gate opening by measuring increase in membrane-permeable fluorescent probe signal pretreated for 20 hrs followed by treated with Me4BodipyFL-Ahx3Lue3VS probe for 2 hrs by flow cytometry relative to DMSO; format: cell-based; conditions: filed as activator, time 22.0 hrs

Compound	Activity
CN(C)CCCN1c2ccccc2Sc2ccc(Cl)cc21	1.29
CCOC(=O)Oc1c(OC)cc(C(=O)O[C@@H]2C[C@@H]3CN4CCc5c([nH]c6cc(OC)ccc56)[C@H]4C[C@@H]3[C@H](C(=O)OC)[C@H]2OC)cc1OC	2.84
CC(C)C[C@@H](C=O)NC(=O)[C@H](CC(C)C)NC(=O)[C@H](CC(C)C)NC(=O)OCc1ccccc1 (Cbz-Leu-Leu-Leu-aldehyde)	0.11

molecular target: T1, 20S proteasome (Homo sapiens); assay: Activation of human 20S proteasome chymotrypsin-like hydrolysis activity assessed as measuring fold increase in protein activity using SucLLVY-MCA as a fluorogenic substrate at 10 uM incubated for 20 mins by fluorescence based assay relative to DMSO; format: protein-complex assay; conditions: filed as activator

Compound	fold change (FC)
O=C(O)[C@@H]1[C@H]2C[C@H]3c4[nH]c5ccccc5c4CCN3C[C@@H]2CC[C@@H]1O	2.17
COc1ccc2c3c([nH]c2c1)[C@H]1C[C@H]2[C@H](C[C@@H](O)[C@H](OC)[C@H]2C(=O)O)CN1CC3	2.73
COC(=O)[C@H]1/C(=N/O)CC[C@H]2CN3CCc4c([nH]c5ccccc45)[C@@H]3C[C@@H]21	1.49
COC(=O)[C@H]1[C@H]2C[C@H]3c4[nH]c5ccccc5c4CCN3C[C@H]2CC[C@@H]1O	1.32
RAUWOLFIA SERPENTINA	1.05
CCOC(=O)Oc1c(OC)cc(C(=O)O[C@@H]2C[C@@H]3CN4CCc5c([nH]c6cc(OC)ccc56)[C@H]4C[C@@H]3[C@H](C(=O)OC)[C@H]2OC)cc1OC	12.5
COC(=O)[C@H]1[C@H]2C[C@@H]3c4[nH]c5cc(OC)ccc5c4CCN3C[C@H]2C[C@@H](OC(=O)c2cc(OC)c(OC)c(OC)c2)[C@@H]1OC	7.91
COC(=O)[C@@H]1[C@H]2C[C@H]3c4[nH]c5ccccc5c4CCN3C[C@@H]2CC[C@@H]1O	0.82
COC(=O)[C@H]1[C@H]2C[C@H]3c4[nH]c5ccccc5c4CCN3C[C@@H]2CC[C@@H]1O	0.99

molecular target: T1, 20S proteasome (Homo sapiens); assay: Activation of human 20S proteasome chymotrypsin-like hydrolysis activity assessed as concentration to doubling the protein activity using SucLLVY-MCA as a fluorogenic substrate measured after 1 hr by fluorescence based assay; format: protein-complex assay; conditions: filed as activator

Compound	CD [µM]
CCOC(=O)Oc1c(OC)cc(C(=O)O[C@@H]2C[C@@H]3CN4CCc5c([nH]c6cc(OC)ccc56)[C@H]4C[C@@H]3[C@H](C(=O)OC)[C@H]2OC)cc1OC	1
COC(=O)[C@H]1[C@H]2C[C@@H]3c4[nH]c5cc(OC)ccc5c4CCN3C[C@H]2C[C@@H](OC(=O)c2cc(OC)c(OC)c(OC)c2)[C@@H]1OC	1.6

molecular target: T1, 20S proteasome (Homo sapiens); assay: Activation of human 20S proteasome chymotrypsin-like hydrolysis activity assessed as measuring fold increase in protein activity using SucLLVY-MCA as a fluorogenic substrate at 20 uM incubated for 20 mins by fluorescence based assay relative to DMSO; format: protein-complex assay; conditions: filed as activator

Compound	fold change (FC)
CN(C)CCCN1c2ccccc2Sc2ccc(Cl)cc21	4.09

molecular target: T1, 20S proteasome (Homo sapiens); assay: Activation of human 20S proteasome assessed as alpha-synuclein degradation incubated for 20 mins by Western blot analysis; format: protein-complex assay; conditions: filed as activator

Compound	Activity
CCOC(=O)Oc1c(OC)cc(C(=O)O[C@@H]2C[C@@H]3CN4CCc5c([nH]c6cc(OC)ccc56)[C@H]4C[C@@H]3[C@H](C(=O)OC)[C@H]2OC)cc1OC	Active
COC(=O)[C@H]1[C@H]2C[C@@H]3c4[nH]c5cc(OC)ccc5c4CCN3C[C@H]2C[C@@H](OC(=O)c2cc(OC)c(OC)c(OC)c2)[C@@H]1OC	Active

molecular target: T1, 20S proteasome (Homo sapiens); assay: Activation of human 20S proteasome chymotrypsin-like hydrolysis activity assessed as measuring fold increase in protein activity using SucLLVY-MCA as a fluorogenic substrate at 20 uM incubated for 1 hrs by fluorescence based assay relative to DMSO; format: protein-complex assay; conditions: not given

Compound	fold change (FC)
O=C(O)[C@@H]1[C@H]2C[C@H]3c4[nH]c5ccccc5c4CCN3C[C@@H]2CC[C@@H]1O	< 3
COc1ccc2c3c([nH]c2c1)[C@H]1C[C@H]2[C@H](C[C@@H](O)[C@H](OC)[C@H]2C(=O)O)CN1CC3	< 3
COC(=O)[C@H]1/C(=N/O)CC[C@H]2CN3CCc4c([nH]c5ccccc45)[C@@H]3C[C@@H]21	< 3
COC(=O)[C@H]1[C@H]2C[C@H]3c4[nH]c5ccccc5c4CCN3C[C@H]2CC[C@@H]1O	< 3
RAUWOLFIA SERPENTINA	< 3
COC(=O)[C@@H]1[C@H]2C[C@H]3c4[nH]c5ccccc5c4CCN3C[C@@H]2CC[C@@H]1O	< 3
COC(=O)[C@H]1[C@H]2C[C@H]3c4[nH]c5ccccc5c4CCN3C[C@@H]2CC[C@@H]1O	< 3

same assay, conditions: filed as activator

Compound	fold change (FC)
COc1cc(/C=C/C(=O)CC(=O)/C=C/c2ccc(O)c(OC)c2)ccc1O	5.4
CC(C)[C@@]1(NC(=O)[C@@H]2C[C@@H]3c4cccc5[nH]cc(c45)C[C@H]3N(C)C2)O[C@@]2(O)[C@@H]3CCCN3C(=O)[C@H](Cc3ccccc3)N2C1=O	8
CN1C[C@H](C(=O)N[C@]2(C)O[C@@]3(O)[C@@H]4CCCN4C(=O)[C@H](Cc4ccccc4)N3C2=O)C=C2c3cccc4[nH]cc(c34)C[C@H]21	7.2
C[C@H]1[C@H](C)CC[C@]2(C(=O)O)CC[C@]3(C)C(=CC[C@@H]4[C@@]5(C)CC[C@H](O)C(C)(C)[C@@H]5CC[C@]43C)[C@H]12	6.5
CC(C)C[C@H]1C(=O)N2CCC[C@H]2[C@]2(O)O[C@](NC(=O)[C@@H]3C=C4c5cccc6[nH]c(Br)c(c56)C[C@H]4N(C)C3)(C(C)C)C(=O)N12	6.7
CC(C)[C@H]1C(=O)N2CCC[C@H]2[C@]2(O)O[C@](NC(=O)[C@@H]3C[C@@H]4c5cccc6[nH]cc(c56)C[C@H]4N(C)C3)(C(C)C)C(=O)N12	4.3
CC(C)=CCC/C(C)=C/CC/C(C)=C/CC/C(C)=C/CC1=C(C)C(=O)c2ccccc2C1=O	4.5
CCOC(=O)Oc1c(OC)cc(C(=O)O[C@@H]2C[C@@H]3CN4CCc5c([nH]c6cc(OC)ccc56)[C@H]4C[C@@H]3[C@H](C(=O)OC)[C@H]2OC)cc1OC	13
COC(=O)[C@H]1[C@H]2C[C@@H]3c4[nH]c5cc(OC)ccc5c4CCN3C[C@H]2C[C@@H](OC(=O)c2cc(OC)c(OC)c(OC)c2)[C@@H]1OC	7.9
Cc1cc2nc3c(=O)[nH]c(=O)nc-3n(C[C@H](O)[C@H](O)[C@H](O)CO)c2cc1C	4.5
Cc1cc2c(C(C)C)c(O)c(O)c(C=O)c2c(O)c1-c1c(C)cc2c(C(C)C)c(O)c(O)c(C=O)c2c1O	4
CC(C)C[C@H]1C(=O)N2CCC[C@H]2[C@]2(O)O[C@](NC(=O)[C@@H]3C=C4c5cccc6[nH]cc(c56)C[C@H]4N(C)C3)(C(C)C)C(=O)N12	8.9

molecular target: T1, 20S proteasome (Homo sapiens); assay: Activation of human 20S proteasome trypsin-like hydrolysis activity assessed as concentration to doubling the protein activity using […] as a fluorogenic substrate measured after 1 hr by fluorescence based assay; format: protein-complex assay; conditions: filed as activator

Compound	CD [µM]
CCOC(=O)Oc1c(OC)cc(C(=O)O[C@@H]2C[C@@H]3CN4CCc5c([nH]c6cc(OC)ccc56)[C@H]4C[C@@H]3[C@H](C(=O)OC)[C@H]2OC)cc1OC	0.96
COC(=O)[C@H]1[C@H]2C[C@@H]3c4[nH]c5cc(OC)ccc5c4CCN3C[C@H]2C[C@@H](OC(=O)c2cc(OC)c(OC)c(OC)c2)[C@@H]1OC	1.3

molecular target: T1, 20S proteasome (Homo sapiens); assay: Activation of human 20S proteasome mediated trypsin-like proteolytic activity assessed as maximal fold increase in protein activity using […] as a fluorogenic substrate incubated for 1 hr by fluorescence based assay; format: protein-complex assay; conditions: filed as activator

Compound	fold change (FC)
CCOC(=O)Oc1c(OC)cc(C(=O)O[C@@H]2C[C@@H]3CN4CCc5c([nH]c6cc(OC)ccc56)[C@H]4C[C@@H]3[C@H](C(=O)OC)[C@H]2OC)cc1OC	8
COC(=O)[C@H]1[C@H]2C[C@@H]3c4[nH]c5cc(OC)ccc5c4CCN3C[C@H]2C[C@@H](OC(=O)c2cc(OC)c(OC)c(OC)c2)[C@@H]1OC	7

molecular target: T1, 20S proteasome (Homo sapiens); assay: Activation of human 20S proteasome caspase-like hydrolysis activity assessed as concentration to doubling the protein activity using […] as a fluorogenic substrate measured after 1 hr by fluorescence based assay; format: protein-complex assay; conditions: filed as activator

Compound	CD [µM]
CCOC(=O)Oc1c(OC)cc(C(=O)O[C@@H]2C[C@@H]3CN4CCc5c([nH]c6cc(OC)ccc56)[C@H]4C[C@@H]3[C@H](C(=O)OC)[C@H]2OC)cc1OC	0.38
COC(=O)[C@H]1[C@H]2C[C@@H]3c4[nH]c5cc(OC)ccc5c4CCN3C[C@H]2C[C@@H](OC(=O)c2cc(OC)c(OC)c(OC)c2)[C@@H]1OC	0.53

molecular target: 26S proteasome (Homo sapiens) (UniProt Q99460+P49721+P20618+P28074+P28062+P28065+P28072+O00487+P25786+P25787+P25788+P25789+P28066+P60900+O14818+Q8TAA3+P40306+A5LHX3+P49720+P28070+Q99436+Q16186+P35998+P62191+P43686+P62333+P17980+P62195+Q13200+O43242+O00232+O00231+Q15008+P51665+Q9UNM6+P55036+P48556+P60896); assay: Activation of human 26S proteasome mediated proteolytic hydrolysis activity using SucLLVY-AMC as a flurogenic substrate measured every minute for 1 hrs by fluorescence based assay; format: protein-complex assay; conditions: not given

Compound	Activity
CCOC(=O)Oc1c(OC)cc(C(=O)O[C@@H]2C[C@@H]3CN4CCc5c([nH]c6cc(OC)ccc56)[C@H]4C[C@@H]3[C@H](C(=O)OC)[C@H]2OC)cc1OC	inactive
COC(=O)[C@H]1[C@H]2C[C@@H]3c4[nH]c5cc(OC)ccc5c4CCN3C[C@H]2C[C@@H](OC(=O)c2cc(OC)c(OC)c(OC)c2)[C@@H]1OC	inactive

molecular target: T1, 20S proteasome (Homo sapiens); assay: Activation of human 20S proteasome mediated caspase-like proteolytic activity assessed as maximal fold increase in protein activity using […] as a fluorogenic substrate incubated for 1 hr by fluorescence based assay; format: protein-complex assay; conditions: filed as activator

Compound	fold change (FC)
CCOC(=O)Oc1c(OC)cc(C(=O)O[C@@H]2C[C@@H]3CN4CCc5c([nH]c6cc(OC)ccc56)[C@H]4C[C@@H]3[C@H](C(=O)OC)[C@H]2OC)cc1OC	9.4
COC(=O)[C@H]1[C@H]2C[C@@H]3c4[nH]c5cc(OC)ccc5c4CCN3C[C@H]2C[C@@H](OC(=O)c2cc(OC)c(OC)c(OC)c2)[C@@H]1OC	7

molecular target: T1, 20S proteasome (Homo sapiens); assay: Activation of human 20S proteasome assessed as alpha-synuclein degradation in presence of MG132 incubated for 20 mins by Western blot analysis; format: protein-complex assay; conditions: not given

Compound	Activity
COC(=O)[C@H]1[C@H]2C[C@@H]3c4[nH]c5cc(OC)ccc5c4CCN3C[C@H]2C[C@@H](OC(=O)c2cc(OC)c(OC)c(OC)c2)[C@@H]1OC	inactive

same assay, conditions: filed as activator

Compound	Activity
CCOC(=O)Oc1c(OC)cc(C(=O)O[C@@H]2C[C@@H]3CN4CCc5c([nH]c6cc(OC)ccc56)[C@H]4C[C@@H]3[C@H](C(=O)OC)[C@H]2OC)cc1OC	Active
